Assay results as given in patent US20260262643A1, “HERBICIDAL BENZOXAZINES” (FMC CORPORATION, priority 2022, published 2026).

What was measured:
sedge, umbrella = assay: Test B flooded paddy test; format: in vivo, Cyperus difformis; conditions: 250 g ai/ha, Flood, 13 days, 0 to 100 scale (0 no effect, 100 complete control)
Outline: (§1)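 2-leaf stage; pots flooded 3 cm over soil; compound dosed into paddy water; depth kept constant. Greenhouse, 13 d. Visual rating vs controls, 0 (no effect)–100 (complete control). Dash = no result.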

horseweed = assay: Test A postemergence; format: in vivo, Erigeron canadensis; conditions: postemergence, 10 days; for Horseweed plant response rating: 125 g ai/ha, 0 to 100 scale, 0 no effect, 100 complete control; for Plant response rating, Horseweed: 500 g ai/ha, visual injury, 0 to 100 scale (0 no effect, 100 complete control)
Outline: (§2)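 Visual injury ratings on a 0–100 scale (100 = complete control) versus untreated controls, taken 10 days after treatment in greenhouse. Preemergence: directed soil spray onto seeded loam/sand. Postemergence: foliar application at one- to two-leaf stage, plants 2–10 cm. Formulation: non-phytotoxic solvent plus surfactant.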

ryegrass, Italian [1] = assay: Test A postemergence; format: in vivo, Lolium multiflorum; conditions: postemergence, 10 days; for Ryegrass, Italian plant response rating: 125 g ai/ha, 0 to 100 scale, 0 no effect, 100 complete control; for Plant response rating, Ryegrass, Italian: 500 g ai/ha, visual injury, 0 to 100 scale (0 no effect, 100 complete control)
Outline: as §2

pigweed, palmer [2] = assay: Test A preemergence; format: in vivo, Amaranthus palmeri; conditions: 0 to 100 scale
Outline: as §2

galium = assay: Test A postemergence; format: in vivo, Galium aparine; conditions: postemergence, 10 days; for Galium plant response rating: 125 g ai/ha, 0 to 100 scale, 0 no effect, 100 complete control; for Plant response rating, Galium: 500 g ai/ha, visual injury, 0 to 100 scale (0 no effect, 100 complete control)
Outline: as §2

pigweed, palmer [3] = assay: Test A postemergence; format: in vivo, Amaranthus palmeri; conditions: postemergence, 10 days; for Pigweed, Palmer plant response rating: 125 g ai/ha, 0 to 100 scale, 0 no effect, 100 complete control; for Plant response rating, Pigweed, Palmer: 500 g ai/ha, visual injury, 0 to 100 scale (0 no effect, 100 complete control)
Outline: as §2

barnyardgrass [4] = assay: Test A postemergence; format: in vivo, Echinochloa crusgalli; conditions: postemergence, 10 days; for Barnyardgrass plant response rating: 125 g ai/ha, 0 to 100 scale, 0 no effect, 100 complete control; for Plant response rating, Barnyardgrass: 500 g ai/ha, visual injury, 0 to 100 scale (0 no effect, 100 complete control)
Excerpt: (§3) Seeds of plant species selected from barnyardgrass (Echinochloa crusgalli), blackgrass (Alopecurus myosuroides), corn (Zea mays), foxtail, giant (giant foxtail, Setaria faberi), goosegrass (Eleusine indica), kochia (Bassia scoparia), oat, wild (wild oat, Avena fatua), pigweed, palmer (palmer amaranth, palmer pigweed, Amaranthus palmeri), Pigweed, Redroot (redroot pigweed, Amaranthus retroflexus), ragweed (common ragweed, Ambrosia artemisiifolia), ryegrass, Italian (italian ryegrass, Lolium multiflorum), soybean (Glycine max), and wheat (Triticum aestivum) were planted into a blend of loam soil and sand and treated preemergence with a directed soil spray using test chemicals formulated in a non-phytotoxic solvent mixture which included a surfactant. At the same time, plants selected from these crops and weed species and also galium (catchweed bedstraw, Galium aparine) and horseweed (Erigeron canadensis) were planted in pots containing the same blend of loam soil and sand and treated with postemergence applications of test chemicals formulated in the same manner. Plants ranged in height from 2 to 10 cm and were in the one- to two-leaf stage for the postemergence treatment. Treated plants and untreated controls were maintained in a greenhouse for 10 days, after which time all treated plants were compared to untreated controls and visually evaluated for injury. Plant response ratings, summarized in Table A, are based on a 0 to 100 scale where 0 is no effect and 100 is complete control. A dash (-) response means no test result.

blackgrass [5] = assay: Test A postemergence; format: in vivo, Alopecurus myosuroides; conditions: postemergence, 10 days; for Blackgrass plant response rating: 125 g ai/ha, 0 to 100 scale, 0 no effect, 100 complete control; for Plant response rating, Blackgrass: 500 g ai/ha, visual injury, 0 to 100 scale (0 no effect, 100 complete control)
Outline: as §2

barnyardgrass [6] = assay: Test B flooded paddy test; format: in vivo, Echinochloa crus-galli; conditions: 250 g ai/ha, Flood, 13 days, 0 to 100 scale (0 no effect, 100 complete control)
Outline: as §1

rice = assay: Test B flooded paddy test; format: in vivo, Oryza sativa; conditions: 250 g ai/ha, Flood, 13 days, 0 to 100 scale (0 no effect, 100 complete control)
Outline: as §1

corn [7] = assay: Test A preemergence; format: in vivo, Zea mays; conditions: 0 to 100 scale
Outline: as §2

kochia [8] = assay: Test A preemergence; format: in vivo, Bassia scoparia; conditions: 0 to 100 scale
Outline: as §2

wheat [9] = assay: Test A postemergence; format: in vivo, Triticum aestivum; conditions: postemergence, 10 days; for Wheat plant response rating: 125 g ai/ha, 0 to 100 scale, 0 no effect, 100 complete control; for Plant response rating, Wheat: 500 g ai/ha, visual injury, 0 to 100 scale (0 no effect, 100 complete control)
Outline: as §2

oat, wild [10] = assay: Test A preemergence; format: in vivo, Avena fatua; conditions: 0 to 100 scale
Outline: as §2

corn [11] = assay: Test A postemergence; format: in vivo, Zea mays; conditions: postemergence, 10 days; for Corn plant response rating: 125 g ai/ha, 0 to 100 scale, 0 no effect, 100 complete control; for Plant response rating, Corn: 500 g ai/ha, visual injury, 0 to 100 scale (0 no effect, 100 complete control)
Outline: as §2

ragweed [12] = assay: Test A postemergence; format: in vivo, Ambrosia artemisiifolia; conditions: postemergence, 10 days; for Ragweed plant response rating: 125 g ai/ha, 0 to 100 scale, 0 no effect, 100 complete control; for Plant response rating, Ragweed: 500 g ai/ha, visual injury, 0 to 100 scale (0 no effect, 100 complete control)
Outline: as §2

ducksalad = assay: Test B flooded paddy test; format: in vivo, Heteranthera limosa; conditions: 250 g ai/ha, Flood, 13 days, 0 to 100 scale (0 no effect, 100 complete control)
Outline: as §1

barnyardgrass [13] = assay: Test A preemergence; format: in vivo, Echinochloa crusgalli; conditions: visual injury after 10 days, 0 to 100 scale, 0 is no effect, 100 is complete control
Excerpt: as §3

soybean [14] = assay: Test A postemergence; format: in vivo, Glycine max; conditions: postemergence, 10 days; for Soybean plant response rating: 125 g ai/ha, 0 to 100 scale, 0 no effect, 100 complete control; for Plant response rating, Soybean: 500 g ai/ha, visual injury, 0 to 100 scale (0 no effect, 100 complete control)
Outline: as §2

kochia [15] = assay: Test A postemergence; format: in vivo, Bassia scoparia; conditions: postemergence, 10 days; for Kochia plant response rating: 125 g ai/ha, 0 to 100 scale, 0 no effect, 100 complete control; for Plant response rating, Kochia: 500 g ai/ha, visual injury, 0 to 100 scale (0 no effect, 100 complete control)
Outline: as §2

blackgrass [16] = assay: Test A preemergence; format: in vivo, Alopecurus myosuroides; conditions: 0 to 100 scale
Outline: as §2

oat, wild [17] = assay: Test A postemergence; format: in vivo, Avena fatua; conditions: postemergence, 10 days; for Oat, Wild plant response rating: 125 g ai/ha, 0 to 100 scale, 0 no effect, 100 complete control; for Plant response rating, Oat, Wild: 500 g ai/ha, visual injury, 0 to 100 scale (0 no effect, 100 complete control)
Outline: as §2

ryegrass, Italian [18] = assay: Test A preemergence; format: in vivo, Lolium multiflorum; conditions: 0 to 100 scale
Outline: as §2

ragweed [19] = assay: Test A preemergence; format: in vivo, Ambrosia artemisiifolia; conditions: 0 to 100 scale
Outline: as §2

soybean [20] = assay: Test A preemergence; format: in vivo, Glycine max; conditions: 0 to 100 scale
Outline: as §2

wheat [21] = assay: Test A preemergence; format: in vivo, Triticum aestivum; conditions: 0 to 100 scale
Outline: as §2

[22] = 125 g ai/ha, visual injury after 10 days, 0 is no effect, 100 is complete control
[23] = 500 g ai/ha, visual injury after 10 days, 0 is no effect, 100 is complete control

C[C@H]1CN(C(=O)c2cc(C3CC3)cc(-n3cncn3)c2)c2cccc(Cl)c2O1 [Compound 136]
20: Barnyardgrass plant response rating (barnyardgrass [4]) | Wheat plant response rating (wheat [9]) | Plant response rating, Oat, Wild (oat, wild [10]; [22]) | Ragweed plant response rating (ragweed [12]) | Plant response rating, Ragweed (ragweed [19]; [23])
30: Pigweed, Palmer plant response rating (pigweed, palmer [3]) | Plant response rating, Corn (corn [7]; [23]) | Plant response rating, Wheat (wheat [9]) | Plant response rating, Oat, Wild (oat, wild [10]; [23]) | Corn plant response rating (corn [11]) | Plant response rating, Ragweed (ragweed [12]) | Plant response rating, Barnyardgrass (barnyardgrass [13]; 125 g ai/ha) | Kochia plant response rating (kochia [15]) | Plant response rating, Oat, Wild (oat, wild [17]) | Plant response rating, Wheat (wheat [21]; [23])
100: Plant response rating, Pigweed, Palmer (pigweed, palmer [2]; [23]) | Plant response rating, Galium (galium) | Plant response rating, Blackgrass (blackgrass [5]) | Soybean plant response rating (soybean [14]) | Plant response rating, Soybean (soybean [14])
80: Galium plant response rating (galium) | Plant response rating, Ryegrass, Italian (ryegrass, Italian [18]; [22])
70: Plant response rating, Pigweed, Palmer (pigweed, palmer [2]; [22]) | Plant response rating, Barnyardgrass (barnyardgrass [4]) | Plant response rating, Kochia (kochia [8]; [23]) | Plant response rating, Kochia (kochia [15]) | Plant response rating, Blackgrass (blackgrass [16]; [22])
60: Ryegrass, Italian plant response rating (ryegrass, Italian [1]) | Plant response rating, Soybean (soybean [20]; [23])
90: Plant response rating, Ryegrass, Italian (ryegrass, Italian [1]) | Plant response rating, Pigweed, Palmer (pigweed, palmer [3]) | Blackgrass plant response rating (blackgrass [5]) | Plant response rating, Corn (corn [11]) | Plant response rating, Barnyardgrass (barnyardgrass [13]; 500 g ai/ha) | Plant response rating, Blackgrass (blackgrass [16]; [23]) | Plant response rating, Ryegrass, Italian (ryegrass, Italian [18]; [23])
10: Oat, Wild plant response rating (oat, wild [17]) | Plant response rating, Soybean (soybean [20]; [22]) | Plant response rating, Wheat (wheat [21]; [22])
0: Plant response rating, Sedge, Umbrella (sedge, umbrella) | Horseweed plant response rating (horseweed) | Plant response rating, Horseweed (horseweed) | Plant response rating, Barnyardgrass (barnyardgrass [6]) | Plant response rating, Rice (rice) | Plant response rating, Corn (corn [7]; [22]) | Plant response rating, Kochia (kochia [8]; [22]) | Plant response rating, Ducksalad (ducksalad) | Plant response rating, Ragweed (ragweed [19]; [22])

C[C@H]1CN(C(=O)c2cc(I)cc(-n3cncn3)c2)c2cccc(Cl)c2O1 [Compound 137]
70: Plant response rating, Blackgrass (blackgrass [5]) | Plant response rating, Kochia (kochia [15]) | Plant response rating, Ryegrass, Italian (ryegrass, Italian [18]; 125 g ai/ha)
50: Plant response rating, Corn (corn [7]; [23])
20: Ryegrass, Italian plant response rating (ryegrass, Italian [1]) | Blackgrass plant response rating (blackgrass [5])
10: Plant response rating, Pigweed, Palmer (pigweed, palmer [2]; 125 g ai/ha) | Barnyardgrass plant response rating (barnyardgrass [4]) | Plant response rating, Barnyardgrass (barnyardgrass [4]) | Wheat plant response rating (wheat [9]) | Plant response rating, Wheat (wheat [9]) | Corn plant response rating (corn [11]) | Plant response rating, Corn (corn [11])
80: Plant response rating, Pigweed, Palmer (pigweed, palmer [2]; [23]) | Galium plant response rating (galium) | Soybean plant response rating (soybean [14]) | Plant response rating, Ryegrass, Italian (ryegrass, Italian [18]; [23])
30: Plant response rating, Horseweed (horseweed) | Plant response rating, Ryegrass, Italian (ryegrass, Italian [1]) | Pigweed, Palmer plant response rating (pigweed, palmer [3]) | Ragweed plant response rating (ragweed [12]) | Plant response rating, Ragweed (ragweed [12]) | Kochia plant response rating (kochia [15]) | Plant response rating, Blackgrass (blackgrass [16]; [23])
0: Plant response rating, Sedge, Umbrella (sedge, umbrella) | Horseweed plant response rating (horseweed) | Plant response rating, Barnyardgrass (barnyardgrass [6]) | Plant response rating, Rice (rice) | Plant response rating, Corn (corn [7]; 125 g ai/ha) | Plant response rating, Kochia (kochia [8]; 125 g ai/ha) | Plant response rating, Kochia (kochia [8]; [23]) | Plant response rating, Oat, Wild (oat, wild [10]; 125 g ai/ha) | Plant response rating, Oat, Wild (oat, wild [10]; [23]) | Plant response rating, Ducksalad (ducksalad) | Plant response rating, Barnyardgrass (barnyardgrass [13]; 125 g ai/ha) | Plant response rating, Blackgrass (blackgrass [16]; 125 g ai/ha) | Oat, Wild plant response rating (oat, wild [17]) | Plant response rating, Oat, Wild (oat, wild [17]) | Plant response rating, Ragweed (ragweed [19]; 125 g ai/ha) | Plant response rating, Ragweed (ragweed [19]; [23]) | Plant response rating, Soybean (soybean [20]; 125 g ai/ha) | Plant response rating, Soybean (soybean [20]; [23]) | Plant response rating, Wheat (wheat [21]; 125 g ai/ha) | Plant response rating, Wheat (wheat [21]; [23])
40: Plant response rating, Barnyardgrass (barnyardgrass [13]; 500 g ai/ha)
90: Plant response rating, Galium (galium) | Plant response rating, Soybean (soybean [14])
60: Plant response rating, Pigweed, Palmer (pigweed, palmer [3])
